Converted amounts (≈) assume the structure as drawn.
Key:
P. aeruginosa PAO280 = assay: MIC determination, P. aeruginosa PAO280; type: cell-based; details: Pseudomonas aeruginosa, PAO280, read-out: MIC (ug/mL) P. aeruginosa PAO280
Protocol: (§1) MIC determinations: The in vitro antibacterial activity of compounds described in the Examples was evaluated by minimum inhibitory concentration (MIC) testing according to Clinical and Laboratory Standards Institute (CLSI, formerly NCCLS) guidelines. See: Clinical and Laboratory Standards Institute. Methods for Dilution Antimicrobial Susceptibility Tests for Bacteria that Grow Aerobically; Approved Standard-Seventh Edition. CLSI document M7-A7 [ISBN 1-56238-587-9]. Clinical and Laboratory Standards Institute, 940 West Valley Road, Suite 1400, Wayne, Pa. 19087-1898 USA, 2006; also Clinical and Laboratory Standards Institute. Performance Standards for Antimicrobial Susceptibility Testing; Eighteenth Informational Supplement. CLSI document M100-S18 [ISBN1-56238-653-0]. Clinical and Laboratory Standards Institute.
(§2) The following bacterial strains were used:
Pseudomonas aeruginosa PA0280: lacks efflux pumps MexAB-oprM, MexXY and MexZ

Enterobacter aerogenes = assay: MIC determination, E. aerogenes; type: cell-based; details: Klebsiella aerogenes; quinolone-resistant, ESBL-expressing clinical isolate; * = arithmetic mean of 2-6 MIC determinations; read-out: MIC (ug/mL) E. aerogenes
Protocol: as §1, §2
Enterobacter aerogenes: Quinolone-resistant isolate, expresses extended-spectrum beta-lactamases (ESBL), clinical isolate;

P. aeruginosa UI-18 = assay: MIC determination, P. aeruginosa UI-18; type: cell-based; details: Pseudomonas aeruginosa, UI18; wild-type; * = arithmetic mean of 2-6 MIC determinations; read-out: MIC (ug/mL) P. aeruginosa UI-18
Protocol: as §1, §2
P. aeruginosa UI-18: Wild-type;

[1] = target: T1, Pseudomonas aeruginosa LpxC enzyme (Pseudomonas aeruginosa, UniProt P47205); assay: IC50 assay, LpxC enzyme from P. aeruginosa; type: biochemical; details: 0.5 nM enzyme, 25° C., pH 8.0, 20 min; ** = average of 2-8 assays
T1 construct: made in house; host or cells: E. coli
T1 sequence (P47205 1-303): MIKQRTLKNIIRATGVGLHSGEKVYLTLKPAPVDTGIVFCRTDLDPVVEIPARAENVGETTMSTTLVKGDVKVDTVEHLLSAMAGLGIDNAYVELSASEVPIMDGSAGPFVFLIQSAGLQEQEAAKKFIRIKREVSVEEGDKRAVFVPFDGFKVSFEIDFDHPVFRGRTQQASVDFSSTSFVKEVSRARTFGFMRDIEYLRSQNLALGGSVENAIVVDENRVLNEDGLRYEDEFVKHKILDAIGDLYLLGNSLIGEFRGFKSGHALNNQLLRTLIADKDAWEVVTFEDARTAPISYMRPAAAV
Protocol: IC50 assay, LpxC enzyme from P. aeruginosa: IC50 determination in the LpxC enzyme assay was carried out in a similar manner to that described by S. A. Hyland et al., J. Bacteriology 1997, 179, 2029-2037. [See also T. Kline et al., J. Medicinal Chemistry 2002, 45, 3112-3129.] Briefly, Pseudomonas aeruginosa LpxC enzyme (0.5 nM) purified from E. coli-overexpressing bacteria was incubated at 25° C. in a final volume of 25 ul containing 0.5 uM UDP-3-O—(R-3-hydroxydecanoyl)-N—[^3H-acetyl]glucosamine (B. D. Maxwell and J. C. Bronstein, J. Labeled Compounds and Radiopharmaceuticals 2005, 48, 1049-1054), 1 mg/ml BSA, and 50 mM sodium phosphate buffer, pH 8.0 in the presence and absence of inhibitor compound. At the end of 20 min, 90 ul of a pre-mixed 3% suspension of activated charcoal in 100 mM sodium acetate, pH 7.5, was added to stop the enzyme reaction. The contents of the well were transferred to a filter plate and filtered, and an aliquot of the filtrate was quantitated by liquid scintillation spectrometry. A no-enzyme control was subtracted in order to eliminate background counts.

Klebsiella pneumoniae = assay: MIC determination, K. pneumoniae; type: cell-based; details: ciprofloxacin-resistant, ESBL-expressing clinical isolate, * = arithmetic mean of 2-6 MIC determinations, read-out: MIC (ug/mL) K. pneumoniae
Protocol: as §1, §2
Klebsiella pneumoniae: Ciprofloxacin-resistant isolate, expresses extended-spectrum beta-lactamases (ESBL), clinical isolate;

[2] = system: Staphylococcus aureus ATCC 29213; assay: MIC determination, S. aureus ATCC 29213; type: cell-based; details: ATCC29213, CLSI quality control reference strain, * = arithmetic mean of 2-6 MIC determinations, read-out: MIC (ug/mL) S. aureus ATCC 29213
Protocol: as §1, §2
Staphylococcus aureus ATCC 29213: CLSI quality control reference strain; and […]

[3] = system: Acinetobacter baumanii/haemolyticus; assay: MIC determination, A. baumanii/haemolyticus; type: cell-based; details: Acinetobacter baumannii; multidrug-resistant clinical isolate; * = arithmetic mean of 2-6 MIC determinations; read-out: MIC (ug/mL) A. baumanii/haemolyticus
Protocol: as §1, §2
Acinetobacter baumanii/haemolyticus: Multidrug-resistant clinical isolate;

Escherichia coli EC-1 = assay: MIC determination, E. coli EC-1; type: cell-based; details: EC1, EC-1: VOGEL, * = arithmetic mean of 2-6 MIC determinations, read-out: MIC (ug/mL) E. coli EC-1
Protocol: as §1, §2
Escherichia coli EC-1: VOGEL;

Cc1ccc(-c2ccc(CO[C@](C)(C(=O)NO)[C@@H](O)c3cc(CO)on3)cc2)nc1 [Example 40, (2S,3S)-N,3-dihydroxy-3-[5-(hydroxymethyl)isoxazol-3-yl]-2-methyl-2-{[4-(5-methylpyridin-2-yl)benzyl]oxy}propanamide]
MIC (P. aeruginosa PAO280): 0.125 µg/mL (≈ 0.302 µM) | MIC (Enterobacter aerogenes): > 64 µg/mL | MIC (P. aeruginosa UI-18): 16 µg/mL (≈ 38.7 µM) | IC50 [1]: 0.00081 µM | MIC (Klebsiella pneumoniae): > 64 µg/mL | MIC [2]: > 64 µg/mL | MIC [3]: > 64 µg/mL | MIC (Escherichia coli EC-1): > 64 µg/mL

Cc1cc(CNC(=O)C(C)(OCc2ccc(-c3ccc(F)cc3)nc2)C(=O)NO)no1 (stereo not drawn) [Example 53, 2-{[6-(4-fluorophenyl)pyridin-3-yl]methoxy}-N-hydroxy-2-methyl-N′-[(5-methylisoxazol-3-yl)methyl]malonamide]
MIC (P. aeruginosa PAO280): 0.5 µg/mL (≈ 1.17 µM) | MIC (Enterobacter aerogenes): > 64 µg/mL | MIC (P. aeruginosa UI-18): 32 µg/mL (≈ 74.7 µM) | IC50 [1]: 0.0143 µM | MIC (Klebsiella pneumoniae): > 64 µg/mL | MIC [2]: > 64 µg/mL | MIC [3]: 64 µg/mL (≈ 149 µM) | MIC (Escherichia coli EC-1): 16 µg/mL (≈ 37.3 µM)

Cc1ccc(-c2ccc(CO[C@](C)(C(=O)NO)[C@@H](O)c3cc(C)on3)cc2)nc1 [Example 32, (2S,3S)-N,3-dihydroxy-2-methyl-3-(5-methylisoxazol-3-yl)-2-{[4-(5-methylpyridin-2-yl)benzyl]oxy}propanamide]
MIC (P. aeruginosa PAO280): 0.06 µg/mL (≈ 0.151 µM) | MIC (Enterobacter aerogenes): > 64 µg/mL | MIC (P. aeruginosa UI-18): 8 µg/mL (≈ 20.1 µM) | IC50 [1]: 0.000286 µM | MIC (Klebsiella pneumoniae): 64 µg/mL (≈ 161 µM) | MIC [2]: > 64 µg/mL | MIC [3]: > 64 µg/mL | MIC (Escherichia coli EC-1): 32 µg/mL (≈ 80.5 µM)

C[C@@](OCc1ccc(-c2ccc(-c3cnco3)cc2)cc1)(C(=O)NO)[C@@H](O)c1ccc(CO)o1 [Example 46, (2S,3S)-N,3-dihydroxy-3-[5-(hydroxymethyl)-2-furyl]-2-methyl-2-{[4′-(1,3-oxazol-5-yl)biphenyl-4-yl]methoxy}propanamide]
MIC (P. aeruginosa PAO280): 0.25 µg/mL (≈ 0.538 µM) | MIC (Enterobacter aerogenes): > 8 µg/mL | MIC (P. aeruginosa UI-18): 4 µg/mL (≈ 8.61 µM) | IC50 [1]: 0.000366 µM | MIC (Klebsiella pneumoniae): > 8 µg/mL | MIC [2]: > 8 µg/mL | MIC [3]: > 8 µg/mL | MIC (Escherichia coli EC-1): > 8 µg/mL

C[C@@](OCc1ccc(-c2ccccc2)cc1)(C(=O)NO)[C@@H](O)c1cn2ccccc2n1 [Example 25, (2S,3S)-2-(biphenyl-4-ylmethoxy)-N,3-dihydroxy-3-imidazo[1,2-a]pyridin-2-yl-2-methylpropanamide]
MIC (P. aeruginosa PAO280): 0.03 µg/mL (≈ 0.0719 µM) | MIC (Enterobacter aerogenes): 16 µg/mL (≈ 38.3 µM) | MIC (P. aeruginosa UI-18): 1.67 µg/mL (≈ 4 µM) | IC50 [1]: 0.00138 µM | MIC (Klebsiella pneumoniae): 4 µg/mL (≈ 9.58 µM) | MIC [2]: > 64 µg/mL | MIC [3]: 32 µg/mL (≈ 76.7 µM) | MIC (Escherichia coli EC-1): 3 µg/mL (≈ 7.19 µM)

C[C@@](OCc1ccc(-c2ccccc2)cc1)(C(=O)NO)[C@@H](O)c1ccno1 [Example 16, (2S,3R)-2-(biphenyl-4-ylmethoxy)-N,3-dihydroxy-3-isoxazol-5-yl-2-methylpropanamide]
MIC (P. aeruginosa PAO280): 0.125 µg/mL (≈ 0.339 µM) | MIC (Enterobacter aerogenes): > 64 µg/mL | MIC (P. aeruginosa UI-18): 8 µg/mL (≈ 21.7 µM) | IC50 [1]: 0.00079 µM | MIC (Klebsiella pneumoniae): > 64 µg/mL | MIC [2]: > 64 µg/mL | MIC [3]: > 64 µg/mL | MIC (Escherichia coli EC-1): 64 µg/mL (≈ 174 µM)

C[C@@](OCc1ccc(-c2ccccc2)cc1)(C(=O)NO)[C@@H](O)c1nccs1 [Example 20, (2S,3R)-2-(biphenyl-4-ylmethoxy)-N,3-dihydroxy-2-methyl-3-(1,3-thiazol-2-yl)propanamide]
MIC (P. aeruginosa PAO280): 1 µg/mL (≈ 2.6 µM) | MIC (Enterobacter aerogenes): > 64 µg/mL | MIC (P. aeruginosa UI-18): 16 µg/mL (≈ 41.6 µM) | IC50 [1]: 0.000726 µM | MIC (Klebsiella pneumoniae): > 64 µg/mL | MIC [2]: > 64 µg/mL | MIC [3]: > 64 µg/mL | MIC (Escherichia coli EC-1): > 64 µg/mL

C[C@@](OCc1ccc(-c2ccccc2)cc1)(C(=O)NO)[C@@H](O)c1ncco1 [Example 33, (2S,3R)-2-(biphenyl-4-ylmethoxy)-N,3-dihydroxy-2-methyl-3-(1,3-oxazol-2-yl)propanamide]
MIC (P. aeruginosa PAO280): 0.25 µg/mL (≈ 0.679 µM) | MIC (Enterobacter aerogenes): > 64 µg/mL | MIC (P. aeruginosa UI-18): 8 µg/mL (≈ 21.7 µM) | IC50 [1]: 0.00323 µM | MIC (Klebsiella pneumoniae): > 64 µg/mL | MIC [2]: > 64 µg/mL | MIC [3]: > 64 µg/mL | MIC (Escherichia coli EC-1): 64 µg/mL (≈ 174 µM)

C[C@@](OCc1ccc(-c2ccccc2)cc1)(C(=O)NO)[C@@H](O)C1CC1 [Example 15, (2S,3S)-2-(biphenyl-4-ylmethoxy)-3-cyclopropyl-N,3-dihydroxy-2-methylpropanamide]
MIC (P. aeruginosa PAO280): 32 µg/mL (≈ 93.7 µM) | MIC (Enterobacter aerogenes): > 64 µg/mL | MIC (P. aeruginosa UI-18): > 64 µg/mL | IC50 [1]: 0.0734 µM | MIC (Klebsiella pneumoniae): > 64 µg/mL | MIC [2]: > 64 µg/mL | MIC [3]: > 64 µg/mL | MIC (Escherichia coli EC-1): > 64 µg/mL

CC(OCc1ccc(-c2ccccc2)cc1)(C(=O)NO)C(=O)NCc1ccncn1 (stereo not drawn) [Example 71, 2-(biphenyl-4-ylmethoxy)-N-hydroxy-2-methyl-N′-(pyrimidin-4-ylmethyl)malonamide]
MIC (P. aeruginosa PAO280): 0.125 µg/mL (≈ 0.308 µM) | MIC (Enterobacter aerogenes): > 64 µg/mL | MIC (P. aeruginosa UI-18): 16 µg/mL (≈ 39.4 µM) | IC50 [1]: 0.00394 µM | MIC (Klebsiella pneumoniae): > 64 µg/mL | MIC [2]: > 64 µg/mL | MIC [3]: > 64 µg/mL | MIC (Escherichia coli EC-1): 32 µg/mL (≈ 78.7 µM)

C[C@@](OCc1ccc(-c2ccccc2)cc1)(C(=O)NO)[C@@H](O)c1ccoc1 [Example 22, (2S,3S)-2-(biphenyl-4-ylmethoxy)-3-(3-furyl)-N,3-dihydroxy-2-methylpropanamide]
MIC (P. aeruginosa PAO280): 4 µg/mL (≈ 10.9 µM) | MIC (Enterobacter aerogenes): > 8 µg/mL | MIC (P. aeruginosa UI-18): > 8 µg/mL | IC50 [1]: 0.0105 µM | MIC (Klebsiella pneumoniae): > 8 µg/mL | MIC [2]: > 8 µg/mL | MIC [3]: > 8 µg/mL | MIC (Escherichia coli EC-1): > 8 µg/mL

CC(OCc1ccc(-c2ccccc2)cc1)(C(=O)NO)C(=O)NCc1nc(-c2ccccc2)no1 (stereo not drawn) [Example 69, 2-(biphenyl-4-ylmethoxy)-N-hydroxy-2-methyl-N′-[(3-phenyl-1,2,4-oxadiazol-5-yl)methyl]malonamide]
MIC (P. aeruginosa PAO280): 0.75 µg/mL (≈ 1.59 µM) | MIC (Enterobacter aerogenes): > 16 µg/mL | MIC (P. aeruginosa UI-18): 12 µg/mL (≈ 25.4 µM) | IC50 [1]: 0.00446 µM | MIC (Klebsiella pneumoniae): > 16 µg/mL | MIC [2]: > 16 µg/mL | MIC [3]: 16 µg/mL (≈ 33.9 µM) | MIC (Escherichia coli EC-1): 16 µg/mL (≈ 33.9 µM)

From US9340493B2, “Hydroxamic acid derivatives useful as antibacterial agents” (Pfizer Inc., priority 2008, dated 2016)
